Results: US8551999B2, “Heterocyclic compound and pharmaceutical composition thereof” (Otsuka Pharmaceutical Co., Ltd., priority 2007, dated 2013)

| melting point | SMILES |
| --- | --- |
| 239.7 to 243.5 °C | Br.CC(C)Oc1ccc(CN2CCN(C(=O)c3cc4ccc(Oc5ccc(NC(=O)c6ccc(Cl)c(Cl)c6)cn5)cc4n3C)CC2)cc1 [Example 255, 3,4-Dichloro-N-(6-{2-[4-(4-isopropoxybenzyl)piperazine-1-carbonyl]-1-methyl-1H-indol-6-yloxy}pyridin-3-yl)benzamide hydrobromide] |
| 239.2 to 240.4 °C | Br.CCCOc1ccc(CN2CCN(C(=O)c3cc4ccc(Oc5ccc(NC(=O)c6ccc(Cl)c(Cl)c6)cn5)cc4n3C)CC2)cc1 [Example 256, 3,4-Dichloro-N-(6-{1-methyl-2-[4-(4-propoxybenzyl)piperazine-1-carbonyl]-1H-indol-6-yloxy}pyridin-3-yl)benzamide hydrobromide] |
| 234.6 to 237.2 °C | Br.COc1ccc(CN2CCN(C(=O)c3cc4ccc(Oc5ccc(NC(=O)c6ccc(Cl)c(Cl)c6)cn5)cc4n3C)CC2)cc1 [Example 258, 3,4-Dichloro-N-(6-{2-[4-(4-methoxybenzyl)piperazine-1-carbonyl]-1-methyl-1H-indol-6-yloxy}pyridin-3-yl)benzamide hydrobromide] |
| 243.6 to 247.7 °C | Br.COCc1ccc(CN2CCN(C(=O)c3cc4ccc(Oc5ccc(NC(=O)c6ccc(Cl)c(Cl)c6)cn5)cc4n3C)CC2)cc1 [Example 259, 3,4-Dichloro-N-(6-{2-[4-(4-methoxymethylbenzyl)piperazine-1-carbonyl]-1-methyl-1H-indol-6-yloxy}pyridin-3-yl)benzamide hydrobromide] |
| 261.6 to 264.7 °C | Br.Cn1c(C(=O)N2CCN(Cc3ccc(OC(F)(F)F)cc3)CC2)cc2ccc(Oc3ccc(NC(=O)c4ccc(Cl)c(Cl)c4)cn3)cc21 [Example 264, 3,4-Dichloro-N-(6-{1-methyl-2-[4-(4-trifluoromethoxybenzyl)-piperazine-1-carbonyl]-1H-indol-6-yloxy}pyridin-3-yl)benzamide hydrobromide] |
| 221.5 to 222.3 °C | Br.Cn1c(C(=O)N2CCN(Cc3ccc(OCC(F)F)cc3)CC2)cc2ccc(Oc3ccc(NC(=O)c4ccc(Cl)c(Cl)c4)cn3)cc21 [Example 268, 3,4-Dichloro-N-[6-(2-{4-[4-(2,2-difluoroethoxy)benzyl]piperazine-1-carbonyl}-1-methyl-1H-indol-6-yloxy)pyridin-3-yl]benzamide hydrobromide] |
| 140.1 to 141.3 °C | Cc1ccc(C(=O)N(C)c2ccc(Oc3ccc4cc(C(=O)N5CCN(Cc6ccc(OC(F)F)cc6)CC5)n(C)c4c3)nc2)cc1 [Example 276, N-(6-{2-[4-(4-Difluoromethoxybenzyl)piperazine-1-carbonyl]-1-methyl-1H-indol-6-yloxy}pyridin-3-yl)-4,N-dimethylbenzamide] |
| 198.7 to 200.5 °C | Br.CN(C(=O)c1ccc(OC(F)F)cc1)c1ccc(Oc2ccc3cc(C(=O)N4CCN(Cc5ccc(OC(F)F)cc5)CC4)n(C)c3c2)nc1 [Example 282, 4-Difluoromethoxy-N-(6-{2-[4-(4-difluoromethoxybenzyl)piperazine-1-carbonyl]-1-methyl-1H-indol-6-yloxy}pyridin-3-yl)-N-methyl-benzamide hydrobromide] |
| 196.9 to 198.6 °C | Br.CN(C(=O)c1ccc(OC(F)F)cc1)c1ccc(Oc2ccc3cc(C(=O)N4CCN(Cc5ccc(OCC(F)F)cc5)CC4)n(C)c3c2)nc1 [Example 283, N-[6-(2-{4-[4-(2,2-Difluoroethoxy)benzyl]piperazine-1-carbonyl}-1-methyl-1H-indol-6-yloxy)pyridin-3-yl]-4-difluoromethoxy-N-methylbenzamide hydrobromide] |
| 203.8 to 205.6 °C | Br.CN(C(=O)c1ccc(OC(F)F)cc1)c1ccc(Oc2ccc3cc(C(=O)N4CCN(Cc5ccc(OCC(F)(F)F)cc5)CC4)n(C)c3c2)nc1 [Example 284, 4-Difluoromethoxy-N-methyl-N-[6-(1-methyl-2-{4-[4-(2,2,2-tri-fluoroethoxy)benzyl]piperazine-1-carbonyl}-1H-indol-6-yloxy)-pyridin-3-yl]benzamide hydrobromide] |
| 199.4 to 203.1 °C | Br.C[C@H]1CN(C(=O)c2cc3ccc(Oc4ccc(NC(=O)c5ccc(OC(F)(F)F)cc5)cn4)cc3n2C)CCN1Cc1ccc(OCC(F)(F)F)cc1 [Example 293, N-[6-(1-Methyl-2-{(S)-3-methyl-4-[4-(2,2,2-trifluoroethoxy)-benzyl]piperazine-1-carbonyl}-1H-indol-6-yloxy)pyridin-3-yl]-4-trifluoromethoxybenzamide hydrobromide] |
| 213.5 to 215.3 °C | Br.Cc1cc(Oc2ccc3cc(C(=O)N4CCN(Cc5ccc(OC(F)F)cc5)CC4)n(C)c3c2)ncc1N(C)S(=O)(=O)c1ccc(Cl)c(Cl)c1 [Example 311, 3,4-Dichloro-N-(6-{2-[4-(4-difluoromethoxybenzyl)piperazine-1-carbonyl]-1-methyl-1H-indol-6-yloxy}-4-methylpyridin-3-yl)-N-methylbenzenesulfonamide hydrobromide] |
| 233 to 235 °C | Br.COc1ccc(CN2CCN(C(=O)c3cc4ccc(Oc5ccc(N(C)C(=O)c6ccc(C(F)(F)F)cc6)cn5)cc4n3C)CC2)cc1 [Example 322, N-(6-{2-[4-(4-Methoxybenzyl)piperazine-1-carbonyl]-1-methyl-1H-indol-6-yloxy}pyridin-3-yl)-N-methyl-4-trifluoromethylbenzamide hydrobromide] |
| 134 to 135 °C | COc1ccc(CN2CCN(C(=O)c3cc4cccc(Oc5ccc(N(C)C(=O)c6ccc(C(F)(F)F)cc6)cn5)c4n3C)CC2)cc1.O=C(O)C(=O)O [Example 323, N-(6-{2-[4-(4-Methoxybenzyl)piperazine-1-carbonyl]-1-methyl-1H-indol-7-yloxy}pyridin-3-yl)-N-methyl-4-trifluoromethylbenzamide oxalate] |

The remaining lines, values behind:

| SMILES | melting point |
| --- | --- |
| Br.Cn1c(C(=O)N2CCN(Cc3ccc4c(c3)OCO4)CC2)cc2ccc(Oc3ccc(NC(=O)c4ccc(Cl)c(Cl)c4)cn3)cc21 [Example 257, N-{6-[2-(4-Benzo[1,3]dioxol-5-ylmethylpiperazine-1-carbonyl)-1-methyl-1H-indol-6-yloxy]pyridin-3-yl}-3,4-dichlorobenzamide hydrobromide] | 241.3 to 243.9 °C |
| Br.CC(C)Cc1ccc(CN2CCN(C(=O)c3cc4ccc(Oc5ccc(NC(=O)c6ccc(Cl)c(Cl)c6)cn5)cc4n3C)CC2)cc1 [Example 260, 3,4-Dichloro-N-(6-{2-[4-(4-isobutylbenzyl)piperazine-1-carbonyl]-1-methyl-1H-indol-6-yloxy}pyridin-3-yl)benzamide hydrobromide] | 255.8 to 257.4 °C |
| Br.Cn1c(C(=O)N2CCN(Cc3ccc(C(F)(F)F)cc3)CC2)cc2ccc(Oc3ccc(NC(=O)c4ccc(Cl)c(Cl)c4)cn3)cc21 [Example 262, 3,4-Dichloro-N-(6-{1-methyl-2-[4-(4-trifluoromethylbenzyl)-piperazine-1-carbonyl]-1H-indol-6-yloxy}pyridin-3-yl)benzamide hydrobromide] | 259.4 to 260.7 °C |
| Br.Cn1c(C(=O)N2CCN(Cc3ccc(C#N)cc3)CC2)cc2ccc(Oc3ccc(NC(=O)c4ccc(Cl)c(Cl)c4)cn3)cc21 [Example 263, 3,4-Dichloro-N-(6-{2-[4-(4-cyanobenzyl)piperazine-1-carbonyl]-1-methyl-1H-indol-6-yloxy}pyridin-3-yl)benzamide hydrobromide] | 263.9 to 267.4 °C |
| Br.CC(C)Oc1ccc(CN2CCN(C(=O)c3cc4ccc(Oc5ccc(NC(=O)c6ccc(Cl)c(Cl)c6)cn5)cc4n3C)CC2)c(F)c1 [Example 265, 3,4-Dichloro-N-(6-{2-[4-(2-fluoro-4-isopropoxybenzyl)piperazine-1-carbonyl]-1-methyl-1H-indol-6-yloxy}pyridin-3-yl)benzamide hydrobromide] | 242.5 to 246.7 °C |
| Br.CC(C)Oc1ccc(CN2CCN(C(=O)c3cc4ccc(Oc5ccc(NC(=O)c6ccc(Cl)c(Cl)c6)cn5)cc4n3C)CC2)cc1F [Example 266, 3,4-Dichloro-N-(6-{2-[4-(3-fluoro-4-isopropoxybenzyl)piperazine-1-carbonyl]-1-methyl-1H-indol-6-yloxy}pyridin-3-yl)benzamide hydrobromide] | 244.3 to 247 °C |
| Br.Cn1c(C(=O)N2CCN(Cc3ccc(OCC(F)(F)F)cc3)CC2)cc2cc(Oc3ccc(NC(=O)c4ccc(C(F)(F)F)cc4O)cn3)ccc21 [Example 267, 2-Hydroxy-N-[6-(1-methyl-2-{4-[4-(2,2,2-trifluoroethoxy)benzyl]-piperazine-1-carbonyl}-1H-indol-5-yloxy)pyridin-3-yl]-4-tri-fluoromethylbenzamide hydrobromide] | 214 to 219 °C (dec.) |
| CN(c1ccc(Oc2ccc3cc(C(=O)N4CCN(Cc5ccc(OCC(F)(F)F)cc5)CC4)[nH]c3c2)nc1)S(C)(=O)=O [Example 285, N-Methyl-N-[6-(2-{4-[4-(2,2,2-trifluoroethoxy)benzyl]piperazine-1-carbonyl}-1H-indol-6-yloxy)pyridin-3-yl]methanesulfonamide] | 167 to 168.1 °C |
| Cc1cc(Oc2ccc3cc(C(=O)N4CCN(Cc5ccc(OC(C)C)cc5)CC4)n(C)c3c2)ncc1N(C)S(=O)(=O)c1ccc(Cl)c(Cl)c1 [Example 313, 3,4-Dichloro-N-(6-{2-[4-(4-isopropoxybenzyl)piperazine-1-carbonyl]-1-methyl-1H-indol-6-yloxy}-4-methylpyridin-3-yl)-N-methylbenzenesulfonamide] | 151 to 151.6 °C |
| Br.Cn1c(C(=O)N2CCN(Cc3ccc4c(c3)OCO4)CC2)cc2cc(Oc3ccc(NC(=O)c4ccc(C(F)(F)F)cc4F)cn3)ccc21 [Example 316, N-{6-[2-(4-Benzo[1,3]dioxol-5-ylmethylpiperazine-1-carbonyl)-1-methyl-1H-indol-5-yloxy]pyridin-3-yl}-2-fluoro-4-trifluoromethyl-benzamide hydrobromide] | 254 to 257 °C (dec.) |
| Br.CN(C(=O)c1ccc(C(F)(F)F)cc1F)c1ccc(Oc2ccc3c(c2)cc(C(=O)N2CCN(Cc4ccc5c(c4)OCO5)CC2)n3C)nc1 [Example 319, N-{6-[2-(4-Benzo[1,3]dioxol-5-ylmethylpiperazine-1-carbonyl)-1-methyl-1H-indol-5-yloxy]pyridin-3-yl}-2-fluoro-N-methyl-4-tri-fluoromethylbenzamide hydrobromide] | 187 to 190 °C |
